# Data published in patent publication US5670506A, “Halogen, isothiocyanate or azide substituted xanthines” (Cell Therapeutics, Inc., priority 1993, dated 1997).
# pIC50: −log10 of the molar value.
# Legend:
# Assay type in all cases: cell-based
# [1] = tested on: Saccharomyces cervisiae; test: yeast growth inhibition; conditions: FIG. 6
# Procedure: This assay measures anti-yeast and anti-fungal activity of the drugs tested.
# Some of the inventive compounds are effective for inhibiting yeast cell growth. This effect can be assayed by measuring growth of the yeast strain Saccharomyces cervisiae. A control yeast stain Saccharomyces cervisiae (BIO 101, Inc.) is grown overnight in YEPD broth at 30° C. An one to hundred dilution of the yeast culture is made with fresh YEPD broth. 100 μl Aliquots of the diluted culture are distributed into 96-wells titer plates. 100 μl Aliquots of drug is diluted in YEPD broth were then added to the wells. The titer plates are incubated at room temperature with continuous shaking. The cell density of the individual cultures are determined using a mircoplate reader with a A630 filter. The A630 of the individual yeast cultures are compared to control samples without adding drug. This assay is predictive of direct antimicrobial, particularly yeast and fungal, activity of the drugs studied.
# This example illustrates the effects of CT2501R (a reference compound), CT1529, CT1589 and CT1519 (see Table 1 for chemical names) on yeast growth (Saccharomyces cervisiae) in the presence or absence of drug. This assays measures anti-yeast and anti-fungal activity of the drugs tested.
# [2] = tested on: PBMC (peripheral blood mononuclear cells); test: two-way mixed lymphocyte reaction (MLR), immune suppression; conditions: Homo sapiens, 144 h, allogeneic stimulation of PBMC, 6 days
# Excerpt: Various in vitro assays can be used to measure effects of the inventive compounds to module immune activity and have antitumor activity using a variety of cellular types. For example, a mixed lymphocyte reaction (MLR) provides a valuable screening tool to determine biological activity of each inventive compound. In the MLR, PBMCs (peripheral blood mononuclear cells) are obtained by drawing whole blood from healthy volunteers in a heparinized container and diluted with an equal volume of hanks balanced salt solution (HBSS). This mixture is layered on a sucrose density gradient, such as a Ficoll-Hypaque® gradient (specific gravity 1.08), and centrifuged at 1000× g for 25 minutes at room temperature or cooler. PBMC are obtained from a band at a plasma-Ficoll interface, separated and washed at least twice in a saline solution, such as HBSS. Contaminating red cells are lysed, such as by ACK lysis for 10 rain at 37° C., and the PBMCs are washed twice in HBSS. The pellet of purified PBMCs is resuspended in complete medium, such as RPMI 1640 plus 20% human inactivated serum. Proliferative response of PBMC to allogeneic stimulation is determined in a two-way MLR performed in a 96-well microtiter plate. […] At the conclusion of the incubation tritiated thymidine is added (for example, 1 μCi/well of 40 to 60 Ci/mmole) and proliferation determined by liquid scintillation counting. […]
# [3] = tested on: human lymphocytes; test: inhibition of blast formation from human lymphocytes stimulated by anti-CD3 antibody; conditions: Lymphocyte, FIG. 10, read-out: IC50, blastogenesis stimulated by anti-CD3
# Procedure: This is a human in vitro assay for immunosuppressive activity of the inventive compounds.
# A third assay measures an ability of an inventive compound to inhibit IL-2-induced proliferation of murine thymocytes. Thymus glands are obtained from 4-6 week old mice and plated as a single cell suspension into flat bottomed wells in RPMI 1640 medium supplemented with 10% fetal calf serum. The inventive compounds are added to appropriate wells and the cells are incubated for 1-2 hrs. Concanavilin A (ConA, 0.25 μg/ml) and IL-1 (20 ng/ml) are added and the plates are incubated for 4 days. Cell proliferation is determined as above. There are also variations for this assay that follow the same basic stimulation and measure inhibition of proliferation format. For example, splenocytes can be used instead of thymocytes to measure more of a B cell response than a T cell response (e.g., thymocytes) and stimulated by an anti-mu antibody (40 μg/ml), IL-4 or PMA (2.5 nM). Similarly, human lymphocytes can be used from normal human volunteers and stimulated with human IL-2 (100 U/ml, Genzyme) and/or anti-CD3 antibody (2.5 μg/ml, Boehinger Mannheim).
# This example illustrates an experiment showing the effects of CT1525, CT1529 and CT1595 (see Table 1 above for chemical names) on inhibition of blast formation from human lymphocytes stimulated by IL-2 or an anti-CD3 antibody (FIG. 10). […]
# [4] = tested on: human stromal cells; test: inhibition of proliferation of human stromal cells stimulated with PDGF
# Procedure: (§1) This assay is a model for restenosis and treatment of atherosclerosis and coronary artery disease. Stromal cells were starved in serum-free media for one day and then stimulated with 50 ng/ml PDGF-BB. The drags were added at the indicated concentrations one hour prior to PDGF stimulation. Tritiated thymidine was added for one day at the time of PDGF stimulation and the cells were harvested and counted by liquid scintillation counting 24 hrs later. Background counts (i.e., starved cells) were approximately 1% of control levels.
# Another assay for measuring activity of the inventive compounds involves determining PDGF (platelet derived growth factor) proliferative response using human-derived stromal cells. Human stromal cells are plated (e.g., about 2000 cells per well) in defined media (e.g., 69% McCoy's, 12.5% fetal calf serum, 12.5% horse serum, 1% antibiotics, 1% glutamine, 1% vitamin supplement, 0.8% essential amino acids, 1% sodium pyruvate, 1% sodium bicarbonate, 0.4% non-essential amino acids and 0.36% hydrocortisone). Two to three days later, the stromal cells are starved in serum-free media. Twenty four hours later, the cells are treated with a stimulating agent, such as PDGF-AA, PDGF-BB or basic FGF (fibroblast growth factor) with or without IL-1α or TNF, and tritiated thymidine. Cell proliferation is determined by liquid scintillation counting.
# as §1, with “drugs” for “drags”
smiles,measurement,setting,value
"Cn1cnc2c1c(=O)n(CCCCC(=O)CCl)c(=O)n2C [CT1595, 1-(6-chloro-5-oxohexyl)-3,7-dimethylxanthine]",yeast growth inhibition,[1],strongly inhibited yeast growth
same,pIC50,[2],> 5.00
same,pIC50,[3],> 5.30
same,inhibition of human stromal cell proliferation,"[4]; FIG. 7, 50 ng/ml PDGF-BB, in words",strongly inhibit proliferation
same,pIC50,"[4]; Homo sapiens, read-out: IC50, inhibition of human stromal cell proliferation",> 5.00
